A melting point compilation (Tetko et al.; mined from patent text by program, amines drawn as free bases though some values may be those of a salt)

Compared with `O=C(CCCCCCCCC(=O)CC(=O)c1ccccc1)CC(=O)c1ccccc1`, `CCCCCCCCCNC(=O)CCC(=O)O` is higher in melting point: 108 to 111 °C for the first, 114 to 116 °C for the second.

First: COC(=O)N1CCC(=C2c3ccccc3CCc3cccnc32)CC1
Second: O=C1CSCc2cc(-c3ccccc3)ccc21
The melting point of the first is higher: 116 to 118 °C for the first, 87 to 89 °C for the second.

First: COc1nc(C2=NC(=O)C(C)(C(C)C)N2)c(C(=O)O)cc1C (stereo not given)
Second: Cn1cc(Br)cc(Nc2ccc(N3CCN(C(=O)OC(C)(C)C)CC3=O)cn2)c1=O
The melting point of the first is higher: 151 to 153 °C for the first, 130 to 132 °C for the second.

First: O=C1Nc2ccccc2CCC1Oc1ccc([N+](=O)[O-])c(OCc2ccccc2)c1 (stereo not given)
Second: COC(=O)CN1C(=O)c2ccccc2Nc2ccc(OCc3cccc4ccccc34)cc21
The melting point of the first is higher: 188 to 189 °C for the first, 85 to 92 °C for the second.

First: Cc1ccc(OC2CCN(CCc3c[nH]c4ccccc34)CC2)cc1
Second: N=c1sc2cc(OC(F)(F)F)ccc2n1CCS(=O)C1CCN(Cc2ccccc2)CC1 (stereo not given)
The melting point of the first is higher: 115 to 117 °C for the first, 97 °C for the second.

First: COc1ccc(-c2nnn(-c3ccc(C(F)(F)F)cc3F)c2C)cc1
Second: COc1ccc(-n2c(=O)n(OCc3ccccc3)c(=O)c3cc(F)c(Cl)nc32)cc1
The melting point of the first is lower: 154 to 155 °C for the first, 238 to 240 °C for the second.

First: CCN(CC)CCC(=O)Nc1ccc(NC(=O)Nc2ccc(N(CCCl)CCCl)cc2)cc1
Second: O=S1(=O)c2ccccc2C(CCCl)(CCCl)c2ccccc21
The melting point of the first is lower: 178 to 179 °C for the first, 186 to 190 °C for the second.

Compared with `O=c1[nH]c(=O)n(Cc2cccc(OCc3noc(-c4ccc(Cl)cc4)n3)c2)o1`, `O=C(O)Cc1cccc(C(=O)c2ccc(OCc3ccc4ccccc4c3)cc2)c1` is lower in melting point: 159 to 160 °C for the first, 150 to 152 °C for the second.

First: C=CC(=O)OCCCCCCC[C@H]1CC[C@H](c2cccc(F)c2F)CC1
Second: CCCNC(=O)C1=CCC2C3CCc4cc(O)ccc4C3CCC12C (stereo not given)
The melting point of the first is lower: 34 to 35.3 °C for the first, 168 to 169 °C for the second.

First: CNc1nc(-c2ccc(SC)cc2)n(-c2ccc(C)cc2)c(=O)c1C#N
Second: COC(=O)c1ccc(OCC2CC(=O)N(c3ccc(OC(C)(C)C)cc3)C2)cc1 (stereo not given)
The melting point of the first is higher: 268 to 271 °C for the first, 126 to 128 °C for the second.

`CC(=O)NCCNc1nc(Nc2ccc3[nH]nnc3c2)ncc1C(F)(F)F` and `O=C(O)c1cc(F)ccc1Nc1ccnc2cc(Cl)ccc12` cannot be ordered by melting point: > 300 °C for the first, 341 to 342 °C for the second.

First: Cc1ccc(C[C@@H](NC(=O)c2cccc3c2C=CCCC3)[C@@H](O)c2ccc(F)cc2)cc1OC(F)(F)C(F)F (racemic)
Second: CN(C)c1ccc(C(=O)NC2CCN(C(c3ccccc3)c3ccccc3)CC2)c([N+](=O)[O-])c1
The melting point of the first is lower: 168 to 169 °C for the first, 183 °C for the second.

First: O=C(NN1CCCCC1)c1nc(-c2ccc(Cl)cc2Cl)n(-c2ccc(Cl)cc2)c1CF
Second: NS(=O)(=O)c1ccc(C2=C(c3ccc(F)c(F)c3)CCC2)cc1
The melting point of the first is higher: 162 to 163 °C for the first, 147 to 148 °C for the second.

First: COc1ccc2c(c1)C(=O)C(=Cc1cccc([N+](=O)[O-])c1)CO2
Second: O=C1OCCC12Sc1ccc([N+](=O)[O-])cc1C2=O (stereo not given)
The melting point of the first is lower: 157 to 159 °C for the first, 190 to 194 °C for the second.

First: CC(=O)c1ccc(-c2ccc(C#N)cc2)o1
Second: COC1(C)c2ccc(C#Cc3cc(Cl)ccc3OCC(=O)O)cc2S(=O)(=O)C1(C)C (stereo not given)
The melting point of the first is higher: 115 to 116 °C for the first, 80 to 95 °C for the second.

First: CCOC(=O)C1=C(CF)NC(CF)=C(C(=O)OCC)C1c1cccc([N+](=O)[O-])c1
Second: CCOC(=O)c1cn2c3c(c(C(C#N)C(=O)OCC)c(F)cc3c1=O)CCN2C (stereo not given)
The melting point of the first is lower: 113 to 114 °C for the first, 153 to 154 °C for the second.

First: CON=C(C#CC(=O)c1ccc(Cl)cc1)C(=O)OC
Second: COC=CC(C)(C)C(=O)Nc1ccc(Cl)cc1
The melting point of the first is higher: 172 to 173 °C for the first, 93 °C for the second.

First: CS(=O)(=O)Nn1c(=O)[nH]c2cc([N+](=O)[O-])c(-n3cnc(CO)c3)cc2c1=O
Second: O=[N+]([O-])c1c(Br)cccc1CS(=O)(=O)c1ccccc1
The melting point of the first is higher: > 300 °C for the first, 138 to 141 °C for the second.

First: CC1(C2CC2)NC(=O)Nc2ccc(-c3cccc(Cl)c3)cc21 (stereo not given)
Second: CCOC(=O)CC1Cc2ccc(O)cc2Cc2ccccc21 (stereo not given)
The melting point of the first is higher: 125 to 127 °C for the first, 110 to 112 °C for the second.

First: CC(C)(C(=O)C=Cc1ccc(F)cc1)C1OCCO1
Second: CCOC(=O)C(=CO)CCN1CCC(C2(c3ccc(F)cc3)OCCO2)CC1
The melting point of the first is lower: 76 °C for the first, 117 °C for the second.

First: O=C(CS)NCC(=O)NCCS
Second: O=C1NC(c2ccccc2)C(C(=O)NCCO[N+](=O)[O-])O1 (stereo not given)
The melting point of the first is higher: 128 to 130 °C for the first, 122 to 124 °C for the second.

Compared with `COc1cc2ncc(O[C@H]3CC[C@H](C(=O)O)CC3)nc2cc1OC`, `COc1cc2[nH]c(=O)c3c(c2cc1OC)CCN(CCN1CCCCC1)C3` is higher in melting point: 90 to 93 °C for the first, 185 to 188 °C for the second.

First: C=C(C)c1ccncc1-c1c(O)cc(C(C)C(C)CCCCC)cc1O (stereo not given)
Second: CC(c1cccc2c1C(=O)NS2(=O)=O)[Si](C)(C)C (stereo not given)
The melting point of the first is higher: 128 to 129 °C for the first, 123 to 125 °C for the second.

Compared with `CC(C)Nc1nc2cc(F)c(Cl)cc2n1[C@@H]1O[C@H](C)[C@@H](O)[C@H]1O`, `CC1C(=S)Nc2c(F)cc(F)cc21` (stereo not given) is higher in melting point: 97 to 99 °C for the first, 151 to 152 °C for the second.

Compared with `Clc1cc2c(nc1-c1ccccc1Br)OCC2`, `COC(=O)c1cc(C)c(C(OC(=O)C(C)NS(=O)(=O)c2ccc(Cl)cc2)c2cc(-n3ccnc3)ccc2C)c(C)c1` (stereo not given) is higher in melting point: 106 to 117 °C for the first, 126 to 128 °C for the second.
